# Experimental data: patent US20090258030A1, “Materials and Methods for Improving Livestock Productivity” (priority 2006, published 2009)
# Where a name gives a salt, the structure may show the parent alone.
# Key:
# [1] = Effect of cysteamine compound on crossbreed sheep (Example 6); format: in vivo
# [2] = Cysteamine used to fatten pigs (Example 8); format: in vivo; conditions: 190 ppm
# [3] = 900 g cysteamine HCl per tonnage of diet, after 35 days
# [4] = 900 g/tonnage, 35 days, vs control
# [5] = feed consumed, 900 g/tonnage, 35 days, 20 head
compound,measurement,setting,value
"NCCS [Cysteamine Hydrochloride, cysteamine hydrochloride]",amount of silage necessary in raising the sheep,[1]; [3],reduction
same,weight (ADG) vs control,[1]; [3],statistically significant increase
same,ADG (g/head/day),"[1]; 900 g/tonnage, 35 days",82.29 g/head/day
same,Final weight (kg/head),"[1]; 900 g/tonnage, 35 days",29.59 kg/head
same,Weight gain (kg/head),"[1]; 900 g/tonnage, 35 days",2.88 kg/head
same,Total feed consumption,"[1]; 900 g/tonnage, 35 days, 20 head",1001.2 kg
same,ADG: Improvement (%),[1]; [4],46.2%
same,Silage: Improvement (%),[1]; [4],−5.14%
same,Weight gain: Improvement (%),[1]; [4],46.2%
same,Concentrate,[1]; [5],245 kg
same,Hay,[1]; [5],350.0 kg
same,Silage,[1]; [5],406.2 kg
same,ADG,[2]; from 68 kg to market (35 days),1182 g
same,Age,[2]; from 68 kg to market (35 days),187 days
same,Ave. backfat thickness (cm),[2]; from 68 kg to market (35 days),2.1 cm
same,Back fat thickness (neck) (cm),[2]; from 68 kg to market (35 days),3.0 cm
same,"Back fat thickness, Hip (cm)",[2]; from 68 kg to market (35 days),1.4 cm
same,"Back fat thickness, Middle part (cm)",[2]; from 68 kg to market (35 days),1.8 cm
same,Body weight after slaughtering,[2]; from 68 kg to market (35 days),86 kg
same,Body weight before slaughtering,[2]; from 68 kg to market (35 days),106 kg
same,FCR,[2]; from 68 kg to market (35 days),2.71
same,Feed consumption,[2]; from 68 kg to market (35 days),103 kg
same,Loin eye diameter (cm),[2]; from 68 kg to market (35 days),33.0 cm
same,ADG: Improvement,[2]; vs control,125 g
same,ADG: Improvement (%),[2]; vs control,11.79%
same,Age: Improvement,[2]; vs control,-5 days
same,Age: Improvement (%),[2]; vs control,−2.60%
same,Ave. backfat thickness: Improvement,[2]; vs control,−0.5 cm
same,Ave. backfat thickness: Improvement (%),[2]; vs control,−18.42%
same,Back fat thickness (neck): Improvement,[2]; vs control,−0.6 cm
same,Back fat thickness (neck): Improvement (%),[2]; vs control,−16.67%
same,"Back fat thickness, Hip: Improvement",[2]; vs control,−0.2 cm
same,"Back fat thickness, Hip: Improvement (%)",[2]; vs control,−12.50%
same,"Back fat thickness, Middle part: Improvement",[2]; vs control,−0.6 cm
same,"Back fat thickness, Middle part: Improvement (%)",[2]; vs control,−25.00%
same,Body weight after slaughtering: Improvement,[2]; vs control,2 kg
same,Body weight after slaughtering: Improvement (%),[2]; vs control,2.38%
same,Body weight before slaughtering: Improvement,[2]; vs control,2 kg
same,Body weight before slaughtering: Improvement (%),[2]; vs control,1.92%
same,FCR: Improvement,[2]; vs control,−0.26
same,FCR: Improvement (%),[2]; vs control,−8.80%
same,Feed consumption: Improvement,[2]; vs control,-4 kg
same,Feed consumption: Improvement (%),[2]; vs control,−3.74%
same,Loin eye diameter: Improvement,[2]; vs control,2.5 cm
same,Loin eye diameter: Improvement (%),[2]; vs control,8.20%
